# Source: US12655107B2 (The United States of America, as represented by the …, priority 2018, dated 2026)
# Where two headings read alike, the source gives them in different places.
# Assays:
# MCF-7 xenograft = assay: In vivo antitumor activity, MCF-7 xenograft; design: species or system nude mice; tumor weight inhibitions (TWI): dose or concentration left out as unconfirmed
# [1] = tested on: γH2AX foci in HCT116 cells; assay: γH2AX detection by immunofluorescence; type: cell-based, human; conditions: HCT116, 1 μM, 3 h
# Experimental: To evaluate the DNA damaging effect of 50 in cancer cells, γH2AX foci were assessed by immunofluorescence microscopy in human […] HCT116 cells. After incubation with the compounds for 3 h, the HCT116 cells were stained with γH2AX antibodies.
# HCT116 cells (2×10^4 cells/mL) were grown in culture medium and treated with compounds for 3 h at 37° C. […] Cells were permeabilized with 0.5% Triton X-100 in PBS at 0° C. for 30 min. Dish was blocked with 5% goat serum/PBS at 37° C. for 3 h. […] The dishes were again washed six times with blocking buffer. Digital images were recorded using an LSM710 microscope (Zeiss, Germany) and analyzed with ZEN software.
# [2] = Pharmacokinetic study in rat; conditions: SD rats
# Experimental: The SD rats were divided into two groups (n=3) and treated by intravenous injection (i.v.) at 1 mg/kg dose and intragastrical administration (i.g.) at 5 mg/kg dose, respectively.
# A pharmacokinetic (PK) study in vivo of 50 was performed in Sprague-Dawley (SD) rats. The SD rats were randomly divided into two groups […] and treated by intravenous injection (iv) at 1 mg/kg dose or an intragastrical administration (ig) at 5 mg/kg dose, respectively. Plasma samples were collected postdosing and the concentration of 50 was measured.
# Plasma samples (100 μL) were obtained after centrifugation for 10 min at 3000 rpm and stored at −20° C. until used for analysis. The plasma was detected through LC-MS-MS.
# HCT116 cells = assay: Flow cytometry apoptosis assay; type: cell-based, human
# Experimental: To evaluate the induction of apoptosis by 50, flow cytometry assays were performed in HCT116 cells.
# The stained cells were analyzed by using flow cytometry (BD, FACSCalibur, USA) within I h. The experiments were repeated three times independently.
# HCT116 xenograft = assay: In vivo antitumor activity, HCT116 xenograft
compound,measurement,setting,value
"CNCCn1c(=O)c2cc(OC)c(OC)cc2c2ccc3cc4c(cc3c21)OCO4 [Compound 50, 2,3-dimethoxy-12-(2-(methylamino)ethyl)-[1,3]dioxolo[4′5′:4,5]benzo[1,2-c]phenanthridin-13(12H)-one]",tumor weight inhibitions (TWI),"MCF-7 xenograft; MCF-7 model, ip daily",71.8%
same,tumor volume,"MCF-7 xenograft; MCF-7 xenograft, 5, 10, 20 mg/kg ip daily",significantly reduced the tumor volume in a dose-dependent manner
same,γH2AX foci,[1],effectively induced γH2AX foci
same,AUC0→t,[2]; i.g. 5 mg/kg,0.0483 ± 0.028 µg·h/mL
same,Cmax,[2]; i.g. 5 mg/kg,0.019 ± 0.009 µg/mL
same,Tmax,[2]; i.g. 5 mg/kg,2 ± 0 h
same,F (%),[2]; i.g. 5 mg/kg vs i.v. 1 mg/kg,20.4%
same,AUC0→t,[2]; i.v. 1 mg/kg,0.0472 ± 0.0018 µg·h/mL
same,AUC0→∞,[2]; i.v. 1 mg/kg,0.0498 ± 0.0015 µg·h/mL
same,MRTINF,[2]; i.v. 1 mg/kg,1.46 ± 0.027 h
same,T1/2,[2]; i.v. 1 mg/kg,1.21 h
same,median lethal dose (LD50),"i.p., dose to kill half of mice after 7 days",192 mg/kg
same,mouse survival,"mouse, in vivo, ip, 192 mg/kg",three mice survived
same,mouse survival,"single i.p. dose 122.9 mg/kg, 7 days",all mice survived
same,mouse survival,"single i.p. dose 153.6 mg/kg, 7 days",four mice survived
same,mouse survival,"single i.p. dose 240 mg/kg, 7 days",two mice survived
same,mouse survival,"single i.p. dose 300 mg/kg, 7 days",All mice died within 5 days
same,early apoptotic cells,"HCT116 cells; HCT116, 24 h, 2 μM",27.95%
same,induction of apoptosis,"HCT116 cells; HCT116, 24 h, 0.5, 1 and 2 μM",clearly induced HCT116 cells apoptosis in a dose-dependent manner
same,tumor weight inhibitions (TWI),"HCT116 xenograft; HCT116 model, 20 μM dose (so in the source), ip daily",76.9%
same,tumor volume,"HCT116 xenograft; HCT116 xenograft, i.p. once every day",significantly reduced the tumor volume in a dose-dependent manner
